This is an account of results in PubChem BioAssay AID1259321 (Sanford-Burnham Center for Chemical Genomics, 2017).

pIC50: −log10 of the molar value. Values joined by “and” are separate entries in the source; they are usually repeats but may differ in a detail not shown here. Equal values may be shown once. Active and inactive are the calls of the source.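 The calls were made as follows: active = half-maximal concentration for changing protein binding to DNA, from the fitted dose curve, below 10 micromolar; inactive = the rest.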

The target of this assay is Nuclear receptor subfamily 1 group D member 1 (Homo sapiens) (UniProt P20393). In words: modulators of Rev-erb alpha DNA binding, dose response, biochemical, FITC-DNA, fluorescence polarization (AID 1259321).
Nuclear receptor subfamily 1 group D member 1 (Homo sapiens), sequence (P20393 whole entry, looked up): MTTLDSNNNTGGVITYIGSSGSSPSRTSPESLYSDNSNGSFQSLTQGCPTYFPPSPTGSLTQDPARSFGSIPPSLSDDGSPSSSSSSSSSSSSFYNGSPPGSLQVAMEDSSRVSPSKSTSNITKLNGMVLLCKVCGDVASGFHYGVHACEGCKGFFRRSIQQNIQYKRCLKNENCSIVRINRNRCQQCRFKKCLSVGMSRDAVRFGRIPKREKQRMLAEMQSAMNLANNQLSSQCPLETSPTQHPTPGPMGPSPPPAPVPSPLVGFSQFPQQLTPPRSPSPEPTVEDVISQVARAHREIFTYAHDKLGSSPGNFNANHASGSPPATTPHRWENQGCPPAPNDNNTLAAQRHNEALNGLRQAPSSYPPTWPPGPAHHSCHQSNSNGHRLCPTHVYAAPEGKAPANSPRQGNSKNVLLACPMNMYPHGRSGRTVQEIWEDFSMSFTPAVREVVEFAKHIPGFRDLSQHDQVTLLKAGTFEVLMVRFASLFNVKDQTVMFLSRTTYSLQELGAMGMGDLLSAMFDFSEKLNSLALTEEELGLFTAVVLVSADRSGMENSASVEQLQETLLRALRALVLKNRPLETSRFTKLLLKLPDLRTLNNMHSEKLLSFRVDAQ

Consider `CCOc1ccc(/C(CC)=N/NC(=O)C2(C)CC2(Br)Br)cc1` (centres undefined), for which the pIC50 is 5.11.
Same read-out and setting: the figure for `COCCCNc1nc2c(-c3ccc(C)cc3)nnn2c2ccccc12` is 5.29; for `O=C(CN1CCCCC1)Nc1c2c(nc3ccccc13)N(c1ccccc1)CC2` it is 5.49.
With `Cc1ccc2c(c1)c(/C=C/c1cc[n+](C)cc1)c(C)n2C`, the IC50 was > 40 µM (inactive).
In the case of `CCC(=O)N=c1sc2c(OC)ccc(OC)c2n1C`, the pIC50 was 5.53.
With `Cc1nc(SCC(=O)NC2CCCC2)c2oc3ccccc3c2n1`, the pIC50 is 5.13.
For `Cc1cccc2cc(C#N)c(SCC(=O)N3CCC(C)CC3)nc12`, the pIC50 is 5.90.
As for `COc1ccc(C(=O)Nc2ccccc2-c2nnn(CC(N)=O)n2)cc1`, the IC50 result is “inactive”.
Turning to `Cc1cc(C)cc(OCc2nc3ncc(Br)cc3[nH]2)c1`, the pIC50 was 5.61.
For `COCCn1c(=NC(=O)CCS(=O)(=O)c2ccccc2)sc2cc(C(=O)OC)ccc21`, the IC50 is > 40 µM (inactive).
With `O=C(Nc1nnc(SCc2ccccc2)s1)c1cc2c(s1)CCCC2`, the pIC50 was 5.63.
Same read-out and setting: the figure for `O=C(Cn1c(=S)[nH]c2ccccc2c1=O)NCCc1ccccc1` is 5.05.
Same read-out and setting: the figure for `Fc1ccc(CSc2ncnc3c2oc2ccccc23)cc1` is 5.17; for `O=C(OCCN1C(=O)c2cccc3c(N4CCOCC4)ccc(c23)C1=O)c1ccc(Cl)cc1` it is 5.29.
`COC(=O)c1ccccc1-c1c2ccc(=N)cc-2oc2cc(N)ccc12`: the IC50 was > 40 µM (inactive).
On the same count and under the same terms, the figure for `O=C(c1cc2cc(Cl)ccc2[nH]1)N1CCN(c2ccccn2)CC1` is > 40 µM (inactive).
As to `COc1ccc(NC(=O)NNC(=O)c2cc3ccccc3cc2O)cc1`, the pIC50 is 5.01.
The same measure, in the same setting: the figure for `CCOc1ccc(OCC)c(NC(=O)c2[nH]c(C)c(C(C)=O)c2C)c1` is 5.45; for `COC(=O)c1ccc(N/C=C\C(=O)c2ccc3c(c2)OCO3)cc1` it is 5.15; for `CN1CCS/C1=C/C=C1\SC(=S)N(CC(=O)O)C1=O` it is 5.95.
As to `Cc1ccccc1OCC(=O)Nc1cccc2nsnc12`, the pIC50 is 5.33.
`CN(C)C=Nc1nc2c(Br)ccc(Br)c2cc1C(=O)NCC(C)(C)C`: the IC50 result was “inactive”.
For the compound `C[n+]1ccc(/C=C/c2c[nH]c3ccccc23)cc1`, the IC50 entry is “inactive”.
With `Cc1ccc(C)c2nc(SCC(=O)N3CCCc4ccccc43)c(C#N)cc12`, the negative-log IC50 (pIC50) was 5.21.
On the same count and under the same terms, the figure for `CN(C)c1ccc2nc3c(=O)[nH]c(=O)nc-3n(CC(O)C(O)C(O)CO)c2c1` (centres undefined) is 6.10; for `CCCN1C(=O)c2cccc3c(N4CCCCC4)ccc(c23)C1=O` it is 5.09.
With `O=c1ccc(-c2ccc(S(=O)(=O)N3CCN(c4ccccc4)CC3)o2)n[nH]1`, the IC50 is > 40 µM (inactive).
In the case of `COc1ccc(-n2nc(C(=O)NCC(=O)Nc3cccc(Cl)c3)c3ccccc3c2=O)cc1`, the IC50 result was “inactive”.
Still for that read-out and setting: the entry for `CC(OC(=O)c1cc2c(ccc3ccccc32)oc1=O)c1nc2ccccc2s1` (centres undefined) is “inactive”; for `CCc1cc2cc(C)cc(C)c2nc1SCC(=O)N1CCCC1` it is > 40 µM (inactive).
Same read-out and setting: under `Cc1cc(N2CCCC2)ccc1/C=C1\NC(=S)N(C)C1=O` stands “inactive”.
Consider `C[n+]1c2cc(N)ccc2cc2ccc(N)cc21`, for which the negative logarithm of the IC50 (pIC50) is 5.57 and 5.10.
With `Cc1ccc(N(Cc2cc3cc(C)ccc3[nH]c2=O)C(=O)c2cccs2)cc1`, the pIC50 is 5.26.
Regarding `Cc1nc(SCC(=O)Nc2ccccc2)c2oc3ccccc3c2n1`, the IC50 result is “inactive”.
Take `C=CCNc1nc(NCc2ccc(NC(C)=O)cc2)c2sc(-c3ccccc3)cc2n1`: the negative-log IC50 (pIC50) is 5.27.
Still for that read-out and setting: under `CCOC(=O)N1CCC(n2c(SCC(=O)c3ccccc3)nc3ccsc3c2=O)CC1` stands 5.65.
Still for that read-out and setting: the figure for `COc1ccccc1NC(=O)c1sc2ncn(Cc3cccc4ccccc34)c(=O)c2c1C` is 5.62.
For `CNC(=O)COc1ccccc1C(=O)Nc1ccc2c(c1)oc1ccccc12`, the IC50 was > 40 µM (inactive).
`O=C(Nc1nc(=O)c2ccccc2s1)c1ccc(F)cc1`: the negative logarithm of the IC50 (pIC50) is 5.80.
Take `CCc1nc(SCC(=O)NCCc2ccccc2)c2oc3ccccc3c2n1`: the pIC50 is 5.80.
On the same count and under the same terms, the figure for `O=c1[nH]c(Cc2ccc(F)cc2)nc2scc(-c3ccc(F)cc3)c12` is 5.02; for `COc1ccc(NC(=O)CSc2nc(N)c(C#N)cc2C#N)cc1` it is 5.24.
In the case of `COc1ccc(-c2cc(-c3ccc(OC)cc3)c(C#N)c(SC)n2)cc1`, the negative-log IC50 (pIC50) is 5.08.
Regarding `C=CCN1C(=O)/C(=C\C=C2\N(C)c3ccccc3C2(C)C)SC1=S`, the IC50 entry is “inactive”.
Take `COc1ccccc1N1N=C(C(=O)c2ccccc2)C2C(=O)N(c3ccc(Br)cc3)C(=O)C21` (centres undefined): the negative logarithm of the IC50 (pIC50) was 5.05.
With `CCN(CC)S(=O)(=O)c1ccc(N2CCCCC2)c(NC(=O)C2CSC3(C)CCC(=O)N23)c1` (centres undefined), the IC50 result is “inactive”.
Regarding `CCOc1cccc2sc(NC(=O)c3ccc(Br)s3)nc12`, the IC50 is > 40 µM (inactive).
Take `CCOC(=O)/C(=C\C=C1/Sc2cc(OCC)c(OCC)cc2N1CC)C(C)=O`: the pIC50 was 5.26.
`O=C(CSc1nnc(-c2cccs2)o1)c1ccc2c(c1)OCO2`: the IC50 entry was “inactive”.
For the compound `CN1C(=O)c2cc(NC(=O)Nc3ccccc3)ccc2OC[C@H]2O[C@@H](CC(=O)NC3CCC3)CC[C@@H]21`, the IC50 result is “inactive”.
The same measure, in the same setting: the entry for `CC(C)CC[n+]1ccccc1/C=C/c1ccc(N(C)C)cc1` is “inactive”.
Same read-out and setting: the entry for `Cc1cc(NC(=O)c2cccs2)cc(-c2nc3ncccc3o2)c1O` is “inactive”.
With `N#Cc1c(-c2cccs2)cc(C2CC2)nc1SCC(N)=O`, the negative logarithm of the IC50 (pIC50) is 5.87.
In the case of `COc1ccc(Cn2ccc3ccc(-c4ccc5ccn(C(=O)c6ccc(C)cc6)c5c4)cc32)cc1`, the IC50 is > 40 µM (inactive).
As to `COc1ccc(-c2c(C#N)c(N)nc(Sc3ccc(Cl)cc3)c2C#N)cc1`, the pIC50 was 5.44.
As for `CCOC(=O)c1ccc(CNC(=O)CSc2nc(NC(=O)c3ccccc3)c3c(C)c(C)oc3n2)cc1`, the IC50 entry is “inactive”.
Regarding `O=c1c2ccccc2nc2sc(Nc3cccc(Cl)c3)nn12`, the negative logarithm of the IC50 (pIC50) was 5.41.
For the compound `CC[n+]1ccc(/C=C/c2c[nH]c3ccccc23)cc1`, the IC50 result was “inactive”.
On to `COc1ccccc1-c1ccc2c(c1)C(C)(Cc1cccc(C#N)c1)C(=O)N2` (centres undefined), for which the IC50 is > 40 µM (inactive).
On to `Cc1ccc2nc(N3CCN(S(=O)(=O)c4ccc(C)c(Cl)c4)CC3)c(C#N)cc2c1`, for which the negative logarithm of the IC50 (pIC50) is 5.48.
As for `COc1ccc(NC(=O)c2sc3cc(C(F)(F)F)cnc3c2-c2cccs2)cc1`, the IC50 is > 40 µM (inactive).
On the same count and under the same terms, under `CCN1/C(=C/c2ccc3cc(C)ccc3[n+]2CC)Sc2cc(C)ccc21` stands > 40 µM (inactive).
Take `Cc1cc(=O)oc2cc(NC(=O)c3cccc(F)c3)ccc12`: the negative-log IC50 (pIC50) is 5.99.
Regarding `CCN(CC)C(=O)CSc1nc(N)c(C#N)c(-c2cccs2)c1C#N`, the negative logarithm of the IC50 (pIC50) is 5.08.
As for `CCN(CC)C(=O)CSC1=C(C#N)C(c2cccs2)C=C(C)N1` (centres undefined), the IC50 entry is “inactive”.
On the same count and under the same terms, under `CC(=O)c1ccc(Nc2ncnc3ccc(Br)cc23)cc1` stands “inactive”.
Still for that read-out and setting: under `Cc1ccc(S(=O)(=O)c2c[nH]c3ccc(Cl)cc3c2=O)cc1` stands > 40 µM (inactive); under `CCCC(Oc1ccc(Br)cc1)c1nc2c3cc(OC)c(OC)cc3nc(=S)n2[nH]1` (centres undefined), > 40 µM (inactive); under `O=C(Cn1cc(C(F)(F)F)cc(Cl)c1=O)NCc1ccc(Cl)cc1Cl`, “inactive”.
For the compound `Oc1c(C=Nc2cccc3cccnc23)sc2ccccc12`, the negative logarithm of the IC50 (pIC50) was 5.06.
As for `Cc1cc(=O)oc2cc(OCC(=O)Nc3ccc(S(=O)(=O)N(C)C)cc3)ccc12`, the IC50 was > 40 µM (inactive).
The same measure, in the same setting: under `Brc1ccc(Sc2cnc3ccccc3n2)cc1` stands “inactive”.
As to `COc1ccccc1CNC(=O)COC(=O)c1cccnc1SCC(=O)NCc1ccccc1OC`, the pIC50 was 5.30.
In the case of `COc1ccccc1-c1ccc2c(c1)C(C)(Cc1cc(Cl)ccc1C(F)(F)F)C(=O)N2` (centres undefined), the IC50 is > 40 µM (inactive).
As for `COc1ccc(N2C(=O)c3cccc4c(N(C)CCO)ccc(c34)C2=O)cc1`, the IC50 entry is “inactive”.
As to `COc1ccc2cc(C3CC(c4cccs4)=NN3C(C)=O)c(Cl)nc2c1` (centres undefined), the negative logarithm of the IC50 (pIC50) is 5.54.
Same read-out and setting: under `Nc1ccc(-c2c3ccc(=O)cc-3oc3cc(O)ccc23)cc1C(=O)O` stands 5.27; under `C=CCc1cccc(C2Nc3ccccc3C(=O)N2O)c1O` (centres undefined), 5.15.
With `CCNC(=O)Nc1ccc2c(c1)C(=O)N(C)[C@H]1CC[C@H](CC(=O)N[C@H](C)c3ccccc3)O[C@@H]1CO2`, the IC50 entry was “inactive”.
The same measure, in the same setting: the figure for `Cc1cc(NC(=O)CSc2nc3cc(C)c(C)cc3cc2C)no1` is > 40 µM (inactive); for `CCC(c1ccc(O)cc1)C(CC)c1ccc(O)cc1` (centres undefined) it is “inactive”; for `CCOC(=O)/C(C#N)=C/C=C1\C=Cc2ccccc2N1CC` it is > 40 µM (inactive).
For `Cn1c(SCC(=O)Nc2cccc(F)c2)nnc1-c1cc2ccccc2o1`, the IC50 result is “inactive”.
The same measure, in the same setting: the figure for `Cc1cc(NC(=O)CSc2nc3c(C)cccc3cc2C#N)no1` is > 40 µM (inactive).
Take `N#Cc1c(N)nc(SCC(=O)NCCc2ccccc2)c(C#N)c1-c1cccs1`: the pIC50 was 5.88.
On to `O=c1c2ccccc2ncn1-c1ccc(Cl)c(Cl)c1`, for which the IC50 was > 40 µM (inactive).
`CCCOc1ccc(C(=O)Nc2nc(C)c(Cc3ccc4c(c3)OCO4)s2)cc1`: the IC50 result is “inactive”.
In the case of `COC(=O)Cn1c(=NC(=O)c2nc3ccccc3s2)sc2cc(S(C)(=O)=O)ccc21`, the pIC50 is 6.40.
The same measure, in the same setting: under `COC(=O)c1cc2cc(Cl)ccc2nc1SC` stands 5.60; under `CS(=O)(=O)Nc1ccc(-c2ccc(/C=C3\SC(N)=NC3=O)o2)cc1`, 5.07.
In the case of `O=C(Nc1nc(=O)c2ccccc2s1)c1ccc(Cl)cc1`, the IC50 is > 40 µM (inactive).
Turning to `CCC(=O)c1ccc(OCc2ccc(C(=O)c3ccccc3)cc2)cc1`, the pIC50 is 5.52.
On the same count and under the same terms, the figure for `Cc1nn(C)c(C)c1NC(=O)CSc1nc(-c2ccccc2Cl)nc2c1cnn2-c1ccccc1` is 6.06; for `CCn1cc(C(=O)NCCc2ccccc2C)c(=O)c2ccc(C)nc21` it is 5.94.
